In test [1] the test system is isolated auricle of guinea-pig. The test can be described thus: isolated auricle of guinea-pig: antagonism of isoprenaline (PA2). As to conditions: Cavia porcellus, agonist isoprenaline, PA2 = cologarithm of antagonist concentration requiring twice as much agonist. In kind it is cell-based. An excerpt:
(§1) The following Table gives the PA2 determined with respect to this agonist (PA2 is the cologarithm of the antagonist concentration in the presence of which it is required to use twice as much agonist than in its absence to obtain the same effect; vide, on the subject; Calcul des PA2, Fiche Technique n° 16, J. Pharmacol. Paris, 1971, 2, 3, 373-380).

Test [2] has as its system isolated trachea of guinea-pig. The test can be described thus: isolated trachea of guinea-pig: antagonism of isoprenaline relaxation (PA2). Type of test: cell-based. As to conditions: Cavia porcellus, agonist isoprenaline, PA2 = cologarithm of antagonist concentration requiring twice as much agonist.
From the text: on the isolated trachea of guinea-pigs: they inhibit the relaxation due to the action of this same isoprenaline.
as §1

In a further test the test system is action of isoprenaline. The test can be described thus: inhibition of the action of isoprenaline on cardiac parameters in anesthetized dog. The note with it: Canis lupus familiaris, isoprenaline 0.02 micromole/kg. Type of test: in vivo. From the text: This beta-blocking activity is again apparent in vivo. […] The following Table sets forth the dosages which inhibit 50% of the effect of 0.02 micromole/kg of isoprenaline on blood pressure, on cardiac rhythm and on the contractile strength of the heart.

[3] abbreviates: read-out: PA2 Chronotropic effect (converted).
Setting [4] is: read-out: PA2 Inotropic effect (converted).
Where [5] appears, read: blood pressure, read-out: 50% inhibiting dosage of the action of isoprenaline: Blood pressure.
Setting [6] is: cardiac rhythm, read-out: 50% inhibiting dosage of the action of isoprenaline: Rhythm.
[7] abbreviates: contractile strength of the heart, read-out: 50% inhibiting dosage of the action of isoprenaline: Contractile strength.

Molecules are shown by their SMILES. Where a name gives a salt, the structure may show the parent alone. Read-outs that look alike come from different tables or passages of the source. Bounds are passed on as bounds.

In the case of `CC(C)(C)NCC(O)CON=Cc1ccc2ccccc2c1` (centres unmarked) [Example 28], the Kb in test [1] (setting [3]) is 35.5 nM; in test [1] (setting [4]), 32.4 nM; in test [2], 42.7 nM.

Regarding `CC(=NOCC(O)CNC(C)(C)C)c1ccc(N)cc1` (centres unmarked) [Example 27], the Kb in test [1] (setting [3]) is 22.9 nM; in test [1] (setting [4]), 14.5 nM; in test [2], 79.4 nM.

Regarding `CC(C)NCC(O)CON=C1CCCc2ccccc21` (centres unmarked) [Example 15], the results for the Kb in test [1] (setting [3]), in test [1] (setting [4]) and in test [2] were 676 nM, 759 nM and 12.6 nM, respectively.

Consider `CC(C)(C)NCC(O)CON=C(c1ccccc1)c1ccccc1` (centres unmarked) [Example 4, benzophenone-0-(3-tert.butylamino-2-hydroxy-propyl)-oxime hydrochloride], for which the values for the Kb in test [1] (setting [3]), in test [1] (setting [4]) and in test [2] were 162 nM, 427 nM and 11 nM, respectively.

`CC(=NOCC(O)CNC(C)(C)C)c1ccccc1C` (centres unmarked) [Example 24]: the figures for the Kb in test [1] (setting [3]), in test [1] (setting [4]) and in test [2] were 219 nM, 204 nM and 12.6 nM, respectively.

On to `CC(C)NCC(O)CON=Cc1ccccc1` (centres unmarked) [Example 16], for which the Kb in test [1] (setting [3]) is 3020 nM; in test [1] (setting [4]), 2400 nM; in test [2] it was 129 nM.

Turning to `CC(C)NCC(O)CON=Cc1ccc2ccccc2c1` (centres unmarked) [Example 3, 2-naphthalene carbaldehyde-0-(3-isopropylamino-2-hydroxy-propyl)-oxime hydrochloride], the Kb in test [1] (setting [3]) was 295 nM; in test [1] (setting [4]) it was 115 nM; in test [2] it was 0.427 nM.

`CC(=NOCC(O)CNC(C)(C)C)c1ccc([N+](=O)[O-])cc1` (centres unmarked) [Example 23]: the Kb was 34.7 nM in test [1] (setting [3]), 25.1 nM in test [1] (setting [4]) and 28.8 nM in test [2]. The ED50 in the test with action of isoprenaline (setting [5]) came out at 0.1 µmol/kg; with action of isoprenaline (setting [6]), 3 µmol/kg; in the test on action of isoprenaline (setting [7]), 3 µmol/kg.

Take `CC(=NOCC(O)CNC(C)(C)C)c1cccc(C)c1` (centres unmarked) [Example 26]: the Kb in test [1] (setting [3]) is 7.76 nM; in test [1] (setting [4]) it was 7.94 nM; in test [2] it was 5.01 nM.

In the case of `CC(C)NCC(O)CON=C1CCc2ccccc21` (centres unmarked) [Example 12], the Kb in test [1] (setting [3]) was 363 nM; in test [1] (setting [4]), 513 nM.

In the case of `CC(C)NCC(O)CON=c1c2ccccc2oc2ccccc12` (centres unmarked) [Example 10], the Kb in test [1] (setting [3]) is 79.4 nM; in test [1] (setting [4]), 219 nM; in test [2], 155 nM.

As to `CC(C)(C)NCC(O)CON=C1CCCc2ccccc21` (centres unmarked) [Example 18], the figures for the Kb in test [1] (setting [3]), in test [1] (setting [4]) and in test [2] were 70.8 nM, 28.8 nM and 0.631 nM, respectively. Further, the results for the ED50 in the test on action of isoprenaline (setting [5]), in the test on action of isoprenaline (setting [6]) and in the test on action of isoprenaline (setting [7]) were 0.05 µmol/kg, above 1 µmol/kg and above 1 µmol/kg, respectively.

For the compound `CC(C)(C)NCC(O)CON=Cc1ccccc1` (centres unmarked) [Example 19], the figures for the Kb in test [1] (setting [3]), in test [1] (setting [4]) and in test [2] were 550 nM, 269 nM and 589 nM, respectively.

In the case of `COc1ccc(C(C)=NOCC(O)CNC(C)(C)C)cc1` (centres unmarked) [Example 22], the results for the Kb in test [1] (setting [3]), in test [1] (setting [4]) and in test [2] were 14.1 nM, 11.5 nM and 1.82 nM, respectively.

With `CC(C)NCC(O)CON=C1c2ccccc2-c2ccccc21` (centres unmarked) [Example 9], the Kb is 40.7 nM in test [1] (setting [3]), 79.4 nM in test [1] (setting [4]) and 166 nM in test [2]. Also, the results for the ED50 in the test on action of isoprenaline (setting [5]), in the test with action of isoprenaline (setting [6]) and with action of isoprenaline (setting [7]) were 1.3 µmol/kg, above 17 µmol/kg and above 17 µmol/kg, respectively.

Consider `CC(=NOCC(O)CNC(C)C)c1ccccc1` (centres unmarked) [Example 13], for which the Kb was 229 nM in test [1] (setting [3]), 186 nM in test [1] (setting [4]) and 28.8 nM in test [2].

`CC(C)NCC(O)CON=C(c1ccccc1)c1ccccc1` (centres unmarked) [Example 14]: the Kb is 162 nM in test [1] (setting [3]), 191 nM in test [1] (setting [4]) and 32.4 nM in test [2].

Turning to `CC(=NOCC(O)CNC(C)(C)C)c1ccc(Br)cc1` (centres unmarked) [Example 25], the Kb in test [1] (setting [3]) was 26.3 nM; in test [1] (setting [4]) it was 12.6 nM; in test [2], 3.09 nM.

With `CC(=NOCC(O)CNC(C)(C)C)c1ccccc1Cl` (centres unmarked) [Example 20], the Kb was 4.57 nM in test [1] (setting [3]), 4.27 nM in test [1] (setting [4]) and 13.8 nM in test [2]. In addition, the figures for the ED50 with action of isoprenaline (setting [5]), in the test on action of isoprenaline (setting [6]) and with action of isoprenaline (setting [7]) were 0.07 µmol/kg, 1 µmol/kg and 0.7 µmol/kg, respectively.

For the compound `CC(=NOCC(O)CNC(C)(C)C)c1ccc(C#N)cc1` (centres unmarked) [Example 31], the Kb in test [1] (setting [3]) is 120 nM; in test [1] (setting [4]), 123 nM; in test [2] it was 102 nM.

For `CC(C)(C)NCC(O)CON=C1c2ccccc2-c2ccccc21` (centres unmarked) [Example 1, 9-(3-tert.butylamino-2-hydroxypropoxy)imino-fluorene hydrochloride], the ED50 was 0.2 µmol/kg in the test with action of isoprenaline (setting [5]), 3 µmol/kg in the test with action of isoprenaline (setting [6]) and 3 µmol/kg in the test on action of isoprenaline (setting [7]).

As for `CC(=NOCC(O)CNC(C)(C)C)c1ccccc1` (centres unmarked) [Example 21], the results for the Kb in test [1] (setting [3]), in test [1] (setting [4]) and in test [2] were 200 nM, 117 nM and 24 nM, respectively.

As for `CC(=NOCC(O)CNC(C)(C)C)c1ccc(C)cc1` (centres unmarked) [Example 17], the Kb in test [1] (setting [3]) was 14.8 nM; in test [1] (setting [4]), 13.8 nM; in test [2], 12.9 nM.

For the compound `CC(=NOCC(O)CNC(C)(C)C)c1ccc(Cl)cc1` (centres unmarked) [Example 2, 4-chloro-acetophenone-0-(3-tert.butylamino-2-hydroxy-propyl)oxime hydrochloride], the Kb is 26.3 nM in test [1] (setting [3]), 37.2 nM in test [1] (setting [4]) and 245 nM in test [2]. Further, the ED50 was 1 µmol/kg with action of isoprenaline (setting [5]), above 10 µmol/kg in the test on action of isoprenaline (setting [6]) and 10 µmol/kg in the test on action of isoprenaline (setting [7]).

The values above are taken from patent US4038317A, “O-aminoalkyl oximes” (Seperic, priority 1975, dated 1977).
